The test system of one data set is PANC-1 cells. Briefly: BG4 and 53BP1 immunofluorescence microscopy. In kind it is cell-based, human. An excerpt: Because many established G4-stabilizing ligands induce transcription and replication-coupled DNA damage in the vicinity of G4-forming sequences,[44] we investigated whether CM03 treatment affects cellular G4 occurrence and/or induces a DNA damage response. To do this, we treated asynchronous PANC-1 cells with CM03 and performed immunofluorescence staining using the G4-specific antibody BG4[18] and an antibody against the DNA damage and double-strand break (DSB) marker 53BP1[45] followed by 3D image construction and analysis. […] This further confirms that CM03 has a direct action at G4 sites to increase G4 stabilization. Consistent with the capability of unresolved endogenous genomic G4 sites[46] and small molecule-stabilized G4s to obstruct DNA replication,[44] a 2-fold increase in the number of 53BP1 foci was only apparent after 24 h treatment with CM03 (11 ± 2 compared to 21 ± 3 53BP1 foci) (Figure 4a,c). To determine if CM03 induced DNA damage directly at G4 sites, we calculated the extent of co-localization between BG4 and 53BP1 foci using object-based image co-localization analysis.
BG4 and 53BP1 immunofluorescence experiments were performed essentially as described,[16],[18] with slight modifications. In brief, 8 × 10^4 PANC-1 cells were seeded overnight on circular no. 1.5 coverslips per well in 12-well plates. Next day, cells were incubated with 400 nM CM03 (or left untreated) in 1 mL of media at 37 °C for 6 and 24 h and then fixed with 4 (v/v) % freshly prepared paraformaldehyde in 1× PBS for 10 min at RT. Coverslips were washed 1× PBS, permeabilized with 0.1% (v/v) Triton-X100 in PBS for 10 min, washed with 1× PBS, and blocked with 2% (w/v) Marvel milk (Premier Foods plc) in PBS for 1 h at 37 °C. After blocking, coverslips were incubated with BG4 (20 nM) at 37 °C for 1 h, washed three times for 5 min with PBST (0.1% (v/v) Tween 20), and then incubated with 37 °C for 1 h with rabbit α-FLAG 1:800 (CST, catalogue no. 2368) and mouse α-53BP1 1:500 (Millipore, catalogue no. MAB2803). […] Fluorescence illumination was with a xenon source and FITC, Cy5, and DAPI fluorescent filter cubes used to image BG4, 53BP1, and the nuclei, respectively. […] See extended methods, immunofluorescence, for the custom protocol designed for the BG4-53BP1 foci quantification and co-localization method. […]
For the putative G4 sequences (PQs) analysis, the occurrence of the canonical G4 motif (G≥3N1-7G≥3+N1-7G3≥N1-7G≥3), as previously defined 2,3, was calculated both in gene promoters (defined as 2 kilobases upstream of the transcription start site (TSS) and 100 bases downstream ) and gene bodies (exons and introns). […]

The test system of the next data set is PDAC MIA PaCa-2 cells. Put plainly: 96 h SRB growth inhibition assay, MIA PaCa-2. In kind it is cell-based, human. The settings on record: 96 h SRB IC50. The method, then:
(§1) Compounds were screened with a 96 h SRB (sulforhodamine B) assay for their antiproliferative activity in a panel of human cancer cell lines comprising lung adenocarcinoma (A549), breast adenocarcinoma (MCF7), and PDAC (MIA PaCa-2 and PANC-1) cell lines, as well as a fetal lung fibroblast-like nononcogenic control cell line (WI-38) (Figure 1f). […] Gemcitabine is also active in these lines at low nanomolar levels, although less so in MIA PaCa-2 (IC50 19 ± 5 nM) and more so in BX-PC3 cells (6 ± 2 nM).
(§2) All cell lines were purchased from ATCC and maintained in appropriate medium supplemented with 10% fetal bovine serum (Invitrogen, UK), 2 mM L-glutamine (Invitrogen, Netherlands), and other components as specified by the suppliers. Cell lines were maintained at 37 °C, 5% CO2, and routinely passaged. Drugs were dissolved in H2O and filtered through 0.22 μm pore-size filter units (stock 10 mM) before addition to appropriate cell line media. Cellular growth inhibition was measured using the sulforhodamine B (SRB) assay in 96-well plates as described previously.[78] The 50% inhibitory concentrations (IC50) were determined by taking the mean absorbance at 540 nm for each drug concentration expressed as a percentage of the absorbance of untreated control wells.

The test system of data set [1] is fetal lung fibroblast-like nononcogenic control cell line (WI-38). Briefly: 96 h SRB growth inhibition assay, WI-38. In kind it is cell-based, human. The method, then: as §1, §2
Data set [2] can be described thus: Aqueous solubility and pH of the salt. In kind it is physicochemical. From the text: The synthetic approach to the trisubstituted series adapts previously published procedures to simplify purification and increase yields of both intermediates and final compounds (Scheme 1). 5,5-Dimethyl-1,3-dibromohydantoin was used for the regioselective bromination of the starting material, enabling more efficient and convenient purification. The separation of final products was achieved using column chromatography, giving a 26% overall yield for CM03.
CM03 was then converted to a mixed hydrochloride/formate salt in order to enhance its aqueous solubility. At a concentration of 5 mg/mL, the pH of the CM03 salt solution was 6.95.

Data on one compound can be found in PMC5867665, “Targeting Multiple Effector Pathways in Pancreatic Ductal Adenocarcinoma with a G-Quadruplex-Binding Small Molecule” (Journal of Medicinal Chemistry, 2018).

As for `O=C1c2ccc3c4c(c(NCCN5CCCC5)cc(c24)C(=O)N1CCCN1CCOCC1)C(=O)N(CCCN1CCOCC1)C3=O` [CM03, 2,7-bis(3-morpholinopropyl)-4-((2-(pyrrolidin-1-yl)ethyl)amino)benzo[lmn][3,8]phenanthroline-1,3,6,8(2H,7H)-tetraone], the “number of nuclear BG4 foci” value in the data set on PANC-1 cells (400 nM CM03, 6 h) is reported as 393 ± 13. Also, in the data set with PANC-1 cells (400 nM CM03, 24 h), the “number of 53BP1 foci” value stood at 21 ± 3, the “number of nuclear BG4 foci” value came to 444 ± 39 and the “total BG4 foci per nucleus associated with DNA damage foci” value turned out to be 1.4%. Besides, the “selectivity for MIA PaCa-2 compared to MCF-7 cells” value in the data set with PDAC MIA PaCa-2 cells is given as over 20 fold. Further, the “less activity toward the WI-38 cell line (vs MM41)” value in data set [1] is on record as over 4 fold. Further, the “pH of mixed chloride/formate salt” value in data set [2] came out at 6.9. Further, the “pH of the CM03 salt solution” value in data set [2] (concentration of 5 mg/mL, mixed hydrochloride/formate salt) is 6.95.
